What was measured:
Lysine hydroxylase = test: Enzyme test: hydroxylation of underhydroxylated collagen, lysine hydroxylase inhibition; assay type: biochemical; conditions: 50% inhibition of the enzyme reaction; Iron(II) ions, α-ketoglutarate and ascorbate
From the text: (§1) The inhibitory action of the substances according to the invention, for example on collagen biosynthesis, can be tested in an enzyme test in analogy to the method of B. Peterkovsky and R. DiBlasio, Anal. Biochem. 66, 279-286 (1975). This entails enzymatic hydroxylation of underhydroxylated collagen in the presence of IronlII) ions, α-ketoglutarate and ascorbate. The enzymes which can be used are prolyl 4-hydroxylase, prolyl 3-hydroxylase or lysl hydroxylase in a cell-free test medium. The inhibitory action can also be measured in cell or tissue culture and is reported as 50% inhibition of the enzyme reaction (IC50).

Proline hydroxylase = test: Enzyme test: hydroxylation of underhydroxylated collagen, proline hydroxylase inhibition; assay type: biochemical; conditions: 50% inhibition of the enzyme reaction; Iron(II) ions, α-ketoglutarate and ascorbate
From the text: as §1

Row | SMILES | IC50 (Lysine hydroxylase) [µM] | IC50 (Proline hydroxylase) [µM]
1 | CC(=O)N1CCC[C@H]1C(=O)N[C@@H](CCCNC(=O)c1cc(O)c(O)c(O)c1)C(=O)NCC(=O)O [Ac--Pro--Orn(3,4,5-Trihydroxybenzoyl)-Gly--OH] | 26 | 17
2 | CC(=O)N1CCC[C@H]1C(=O)N[C@@H](CCCNC(=O)c1ccc(O)c(O)c1)C(=O)NCC(=O)O [Ac-Pro-Orn(3,4-dihydroxybenzoyl)-Bly-OH] | 39 | 50
3 | CC(=O)N1CCC[C@H]1C(=O)N[C@@H](CCCNC(=O)Cc1ccc(O)c(O)c1)C(=O)NCC(=O)O [Ac--Pro--Orn(3,4-Dihydroxyphenylacetyl)-Gly--OH] | 70 | 155
4 | CC(=O)N[C@@H](CCCNC(=O)c1cc(O)c(O)c(O)c1)C(=O)N1CCC[C@H]1C(=O)NCC(=O)O [Ac--Orn(3,4,5-Trihydroxybenzoyl)-Pro--Gly--OH] | 8 | 29
5 | CC(=O)N[C@@H](CCCNC(=O)c1ccc(O)c(O)c1)C(=O)N1CCC[C@H]1C(=O)NCC(=O)O [Ac--Orn(3,4-Dihydroxybenzoyl)-Pro--Gly--OH] | 7 | 72
6 | CC(=O)N[C@@H](CCCNC(=O)c1cccc(O)c1O)C(=O)N1CCC[C@H]1C(=O)NCC(=O)O [Ac-Orn(2,3-dihydroxybenzoyl)-Pro-Gly-OH] | 7 | 38
7 | CC(=O)N[C@@H](CCCNC(=O)Cc1ccc(O)c(O)c1)C(=O)N1CCC[C@H]1C(=O)NCC(=O)O [Ac--Orn(3,4-Dihydroxyphenylacetyl)-Pro--Gly--OH] | 37 | 140
